Data as given in publication PMC3502511, “Inhibition of the Prokaryotic Pentameric Ligand-Gated Ion Channel ELIC by Divalent Cations” (PLoS Biology, 2012).

Columns and labels:
ELIC E150A = target: T1, ELIC E150A (Dickeya chrysanthemi, UniProt P0C7B7, E150A/INS163G); experiment: Two-electrode voltage clamp, ELIC E150A in oocytes; format: cell-based, Erwinia chrysanthemi; details: agonist cysteamine
T1 construct: expressed in transfected cells; host or cells: X. laevis oocytes
Description: (§1) Constructs containing the gene of either the WT or mutant channels preceded by the signal sequence of the chicken α7nAchR were cloned into the pTLN vector for expression in X. laevis oocytes. After linearization of the plasmid DNA by MluI, capped complementary RNA was transcribed with the mMessage mMachine kit (Ambion) and purified with the RNeasy kit (Qiagen). For expression, 1–50 ng of RNA was injected into defolliculated oocytes. Two-electrode voltage clamp measurements were performed 1 d after injection at 20°C (OC-725B, Warner Instrument Corp.). Currents were recorded in bath solutions containing 10 mM HEPES (pH 7), 130 mM NaCl, and the indicated concentrations of cysteamine and divalent cations. In case of solutions containing Zn^2+, cysteamine was replaced by propylamine. The membrane potential in all dose–response measurements was set to −40 mV. As ELIC is permeable to divalent cations, we tested if endogenous calcium-activated chloride channels affected our measurements. To chelate intracellular calcium ions, the oocytes were incubated for 15 to 30 min in bath solutions lacking divalent ions but containing 10 µM BAPTA-AM.

ELIC D113N = target: T2, ELIC D113N (Dickeya chrysanthemi, UniProt P0C7B7, D113N/INS163G); experiment: Two-electrode voltage clamp, ELIC D113N in oocytes; format: cell-based, Erwinia chrysanthemi; details: agonist cysteamine
T2 construct: expressed in transfected cells; host or cells: X. laevis oocytes
Description: as §1

Q: Which EC50 (ELIC E150A; Ca^2+ 0 mM) does the source give for `NCCS` [cysteamine] here?
A: The EC50 was 1.4 mM.

Q: And the EC50 (ELIC E150A; Ca^2+ 1 mM)?
A: The EC50 was 2.2 mM.

Q: And the EC50 (ELIC E150A; Ca^2+ 5 mM)?
A: Its EC50 is 6.1 mM.

Q: And the EC50 (ELIC E150A; Ca^2+ 10 mM)?
A: Its EC50 is 8.99 mM.

Q: And the EC50 (ELIC D113N; Ca^2+ 0 mM)?
A: Its EC50 is 0.92 mM.

Q: What about the EC50 (ELIC D113N; Ca^2+ 1 mM) of the same compound?
A: The EC50 was 1.81 mM.

Q: What about the EC50 (ELIC D113N; Ca^2+ 5 mM) of the same compound?
A: Its EC50 is 5.59 mM.

Q: What about the EC50 (ELIC D113N; Ca^2+ 10 mM) of the same compound?
A: Its EC50 is 9.78 mM.
